According to US20070161691A1, “Modified-protein formation inhibitor” (TOKAI UNIVERSITY, priority 2003, published 2007):

Key:
[1] = test system: middle cerebral artery ischemia-reperfusion model; experiment: Cerebroprotective action in middle cerebral artery ischemia-reperfusion model; format: in vivo, rat; settings: after reperfusion 22 hrs
[2] = test system: middle cerebral artery ischemia-reperfusion model; experiment: as above; format: in vivo, rat
Description: CD(SD)IGS male rats (Japan Charles River Kabushiki […], Hino farm, room No. 22, specific product) (8 rats per one group) having body weight 270 to 350 g were anesthetized by 2% isoflurane (mixed bas comprising of 70% N2O (laughter gas) and 30% O2) to immobilize, and then the rats were put on warming plate to keep the rectal and brain temperature 37 to 38° C. After that, to observe the stability in the examination, canula which was made by polyethylene (PE-50, Becton Dickinson) was inserted and left in caudal artery of said animal, and this made blood drawing and blood pressure determining to monitor the biochemical parameter such as blood sugar level, hematocrit, CO2 concentration, oxygen partial pressure, pH, blood pressure and etc. In addition, cerebral blood flow in cortex was determined by laser doppler […] (Neuroscience.inc: OMEGA FLOW (FLO-C1)), putting the detection site directly on cranium on the point left 4 mm from bregma. Left neck of such animal was incised, and from internal and external carotid fork of common carotid artery to upstream of internal carotid, nylon surgical thread (length 16 mm, diameter 0.2 to 0.3 mm, with silicon coating on its tip 3 mm) was passed and left, middle cerebral artery was obstructed for 2 hours. After that, the thread was removed to release the middle cerebral artery, and blood was reperfused for 21 hours. To each animals, 3.0 mg/kg of 3-methyl-1-phenyl 2-pyrazolin-5-one (control, hereinafter referring to edaravone) and 4.23 mg/kg of 4-(5-phenyltetrazol-1-ylmethyl)-morpholine (compound 1) (test compound, hereinafter referring to TM-3001) were respectively administered twice by cannula which is left in caudal artery 5 minutes and 5 hours after middle cerebral artery occlusion. After said operation, the brain was removed from said animal, and after preparing 7 brain slices with 2 mm thickness, to TTC stain (0.8 g of 2,3,5-triphenyltetrazolium chloride (Sigma) dissolved in 40 ml of saline) were soaked at 37° C. for 15 minutes to stain, and fixed by 10% neutral formalin liquid to prepare specimen. Such specimens were created the image by CCD camera respectively, and analysed according to method of Swanson et al. (J Cereb Blood Flow Metab 10:290-293; […]). […] Furthermore, function recovering was estimated before and after the operation by rotor rod test that estimates how much they can walk on rotating rotor.

[3] = comparing to diluent single administration

## CC1=NN(c2ccccc2)C(=O)C1 [Edaravone, 3-methyl-1-phenyl 2-pyrazolin-5-one, reference compound]
[1]
  Nervous condition estimation test, Ave (Bederson grade): 1.5
[2]; after occlusion 10 min
  Nervous condition estimation test, Ave (Bederson grade): 2.8
[2]; after occlusion 2 hrs
  Nervous condition estimation test, Ave (Bederson grade): 2.7
[2]; after reperfusion 10 min
  Nervous condition estimation test, Ave (Bederson grade): 2.2
[2]; after reperfusion 3 hrs
  Nervous condition estimation test, Ave (Bederson grade): 2.1
[2]; after reperfusion 4 hrs
  Nervous condition estimation test, Ave (Bederson grade): 2.0
[2]; before occlusion
  rotor rod test, Ave (count from rotor rod machine): 197.0
[2]; [3]
  improvement for nervous condition: remarkably shown
  recovering the function, rotor rod test: remarkably shown
[2]; comparing to diluent single administration, dosed 5 minutes and 5 hours after occlusion
  cerebral infarction nest: significantly reduced
[2]; reperfusion
  rotor rod test, Ave (count from rotor rod machine): 153.1
[2]; reperfusion vs before occlusion
  rotor rod test, ratio to before occlusion (%), Ave: 160.4%
